In publication PMC12344774, “Ferrocenyl Quinoline-Benzimidazole Hybrids: A Multistage Strategy to Combat Drug-Resistant Malaria” (Inorganic Chemistry, 2025):
Like-named read-outs stand apart in the source and are kept apart here.

Tests used:
[1] = test system: CHO cell line
Description: (§1) The samples were tested over 48 h against the Chinese hamster ovarian (CHO) cell line to determine general cytotoxicity. […] Quantitative assessment of toxic activity in vitro was determined via the MTT assay using the method described. Cell viability was determined colorimetrically using the breakdown of a dye by enzymes of the electron transport chain, taking place in the mitochondria of metabolically active living cells, as a marker for survival.
(§2) Compounds were tested in triplicate on a single occasion against these cells using the MTT assay. The test samples were prepared to a 10 mM stock solution, in 100% DMSO, and stored at −20 °C until use. Samples were tested as a suspension if not completely dissolved. Further dilutions to the desired starting concentration were freshly prepared in growth media at the start of the experiment.
(§3) Cells were plated to a density of 10^5 cells/well in 96-well plates and allowed to attach for 24 h. […] After 44 h MTT was added, and the plates were read 4 h later at 540 nm on a spectrophotometer following the addition of 100 μL of DMSO and gentle plate-shaking to solubilize and visualize the dye. Survival was plotted against concentration, and the IC50 values were obtained using a nonlinear dose–response curve fitting analysis via the Dotmatics software platform.

[2] = Hydroxyl radical (ROS) generation with H2O2, DCFH2 fluorescent probe; settings: 200 μM in 1:4 DMSO/PBS, H2O2 and H2DCF added, 30 min
Excerpt: Fluorogenic redox-sensitive probes are often employed to measure the presence of ROS, due to their low cost, ease of use, and nontoxicity, allowing for spectrofluorimetric measurements. 2′,7′-Dichlorodihydrofluorescein diacetate (DCFH2-DA) is the most widely used fluorogenic probe. Cleavage of the acetate groups, through alkaline hydrolysis, generates 2′,7′-dichlorodihydrofluorescein (DCFH2), which in the presence of oxidants, yields the highly fluorescent 2′,7′-dichlorofluorescein (DCF, λem = 523 nm). The DCFH2 probe reacts with an array of oxidants, making it an ideal indicator of general oxidative stress. […] The presence of these radicals was confirmed by monitoring the fluorescence over time (Figure ). […].
Stock solutions of DCFH2-DA were prepared to 1 mM in 100% DMSO and stored at −20 °C in the dark until use. The deacetylation of DCFH2-DA involved adding 2 μL of a 0.5 M NaOH solution to 200 μL of the 1 mM DCFH2-DA stock solution. The solution was mixed for 30 min, in the dark, at room temperature and then quenched with 800 μL of PBS buffer to obtain a 200 μM H2DCF 1:4 DMSO/PBS solution mixture.
[…]. The fluorometer was blanked using a 1:4 DMSO/PBS solution mixture. To identify hydroxyl radical production, 2 μL of a 0.5% H2O2 solution was added to 900 μL of the 200 μM complex solution in a cuvette at 25 °C. 100 μL of the prepared H2DCF solution (200 μM) was quickly added, and the readings recorded at 530 nm (emission wavelength), at 2 min intervals, over 30 min.

[3] = test system: K1; settings: previous study; ref Baartzes et al.; read-out: PfIC50 (K1); cited from earlier work
[4] = test system: rodent mouse model; design: method as in Baartzes et al.; settings: in vivo, no mice were cured; ref Baartzes et al.; cited from earlier work
[5] = test system: CHO cell line; assay: Cytotoxicity, MTT assay
Description: as §1, §2, §3

[6] = test system: whole-cell NF54 parasites
Description: However, unlike the cell-free assay, the heme fractionation assay isolates both the heme and Hz components via a series of solubilization and separation steps. Furthermore, the absolute amount of each heme species per cell is calculated using the UV–vis data normalized to the flow cytometry parasite cell count.
The IC50 was previously determined using the pLDH assay. Following incubation for 28–32 h, to ensure progression to the trophozoite stage, parasitized red blood cells were saponin lysed to obtain isolated trophozoites. To determine the amount of heme and hemozoin, the trophozoites were then exposed to a series of cellular fractionation steps to successively liberate each heme species. The UV–visible spectra of these fractions were recorded between 400 and 415 nm on a multiwell plate reader. The percentage of each heme species was determined from the absorbance value of the Soret band of the pyridyl heme complex. To determine the absolute levels of each species, an aliquot of the isolated trophozoites was spiked with Trucount beads and stained with SYBR Green. These were run on a flow cytometer to determine absolute counts, which could in turn be used to calculate the absolute levels of each species per cell. The total heme in each of these samples was quantified using a standard curve. GraphPad Prism (v5) was used to analyze the final data set and perform the significance tests.

SMILES | CC50 [1] [µM] | Hydroxyl radical generation (fluorescence intensity over time) [2] | IC50 [3] [µM] | Reduction in parasitemia [4] [%] | CC50 ([5]; read-out: CC50 (CHO) ± SEM, MTT, 48 h, technical triplicate on a single occasion) [µM] | SI (CC50 CHO/IC50 NF54) ([5]; selectivity index) | Hemozoin (Hz) Fe level per cell versus untreated control ([6]; NF54 parasites at 3× IC50) | Free heme level per cell ([6]; NF54 parasites, 0.5–1.5× the IC50 value)
Cc1ccc2c(c1)nc(-[c-]1cccc1)n2CCCNc1ccnc2cc(Cl)ccc12.[Fe+2].c1cc[cH-]c1 [Complex C1, 7-chloro-N-(3-(5-(methyl)-2-ferrocenyl-1H-benzo[d]imidazole-1-yl)propyl)quinolin-4-amine] | 43.7 ± 2.5 | no changes in the fluorescence intensity | 0.283 | 92 | – | – | – | –
Cc1ccc2c(c1)nc(-[c-]1cccc1CN(C)C)n2CCCNc1ccnc2cc(Cl)ccc12.[Fe+2].c1cc[cH-]c1 (stereo not drawn) [Complex C3, 7-Chloro-N-(3-(5-methyl-2-(2-N,N-dimethylaminomethyl)ferrocenyl-1H-benzo[d]-imidazole-1-yl)propyl) Quinoline-4-amine] | – | produce hydroxyl radicals | – | – | 6.1 ± 1.2 | 244.4 | more than five times lower | steadily increased
